Assay results taken from patent US12510533B2, “Methods for treating multiple myeloma and the use of companion biomarkers for 4-(4-(4-(((2-(2,6-dioxopiperidin-3-yl)-1-oxoisoindolin-4-yl)oxy)methyl)benzyl)piperazin-1-yl)-3-fluorobenzonitrile” (Celgene Corporation, priority 2018, dated 2025).

Assays:
[1] = test system: Aiolos and Ikaros; assay: Aiolos and Ikaros degradation and re-expression by flow cytometry in H929-1051 and OPM2-P10 cells; type: cell-based, human
Method: The cell lines were treated with a single continuous exposure to Compound 2, with no washout, and the levels of Aiolos and Ikaros were measured by flow cytometry. After treatment there was greater than 70% degradation of Aiolos and Ikaros within 3 to 6 hours, depending on the cell line (FIG. 7A and FIG. 7B). The depletion of substrates was sustained for up to 70 hours in H929-1051 cells or up to 100 hours in OPM2-P10 cells (FIG. 7A and FIG. 7B). Increasing the concentration 10-fold to 0.1 μM produced little to no additional degradation (FIG. 7A and FIG. 7B).
The effect of transient exposures of H929-1051 cells to Compound 2 on the degradation of Aiolos and Ikaros was also evaluated. A short transient exposure of 15 minutes at 0.1 μM Compound 2 induced Aiolos and Ikaros degradation (FIG. 8). Although the extent of degradation (25% to 50%) was not complete, a prolonged pharmacodynamic (PD) effect was seen that lasted between 25 and 50 hours post-exposure (FIG. 8).
To further understand the kinetics of Compound 2 exposure and Aiolos and Ikaros degradation, a longer exposure of 6 hours to Compound 2 (0.01 and 0.1 μM), followed by washout was investigated. Treatment with Compound 2 produced greater than 70% degradation of Aiolos and Ikaros (FIG. 9). […] Greater than 75% substrate recovery was seen by 25 hours in cells exposed to 0.01 μM Compound 2 and within 75 to 100 hours in cultures exposed to 0.1 μM Compound 2 (FIG. 9).

[2] = test system: H929-1051 cells; assay: PBMC-induced MM cell lysis, PBMCs and MM cells both pretreated, versus single MM culture (H929-1051); type: cell-based, human; conditions: PBMCs and MM cells both preincubated 72 hours
Method: Ninety-six-well dishes were pre-coated with anti-CD3 antibody (OKT3, 3 μg/mL) and incubated at 4° C. overnight before the start of the experiment. Frozen PBMC donor cells were thawed at 37° C. for 2 minutes in RPMI medium with 10% FBS and cell counts and viability were measured on the Vi-CELL analyzer. Peripheral blood mononuclear cells were washed and diluted to 1×10^6 cells/mL and dispensed into the compound-treated plates in a total volume of 200 μL. Cells were incubated with Compound 2 for 2 hours before being transferred onto anti-CD3-coated plates and incubated for an additional 72 hours. At the same time, MM cell lines (NCI-H929, H929-1051, OPM2, OPM2-P10) were diluted to a final concentration of 0.1×10^6 cells/mL and labeled with CellTrace CFSE according to manufacturer's instructions. Multiple myeloma cell lines were then dispensed into compound-treated plates at a total volume of 200 μL and incubated for 72 hours. After 72 hours, the PBMCs and MM cells were counted and transferred into a U-bottom 96-well plate at a final T:E ratio of 1:5. After 24 hours coculture, specific target cell lysis by PBMC mediated apoptosis was measured using Annexin V-AF647 and 7-AAD according to manufacturer's instructions and samples were run on the Attune NxT Cytometer. […]

[3] = test system: K562 cells; assay: Killing of untreated K562 cells by IL-2-activated PBMCs treated with compound (co-culture, Annexin V/PI); type: cell-based; conditions: Homo sapiens, IL-2-activated PBMCs treated 72 hours, read-out: IC50, direct K562 cell killing by treated PBMCs
Method: Freshly isolated human PBMCs were cultured with recombinant IL-2 at concentration of 20 units/mL for 72 hours. Peripheral blood mononuclear cells were then spun down and re-suspended in fresh RPMI complete medium to 2×10^6 cells/mL. Cells were then treated with DMSO or Compound 2 at the indicated concentrations and incubated for an additional 72 hours. The PBMCs were then washed twice in fresh RPMI complete medium prior to coculture. K562 cells were re-suspended to a cell density of 1×10^6 cells/mL and stained with 1 μM CellTrace CFSE according to manufacturer's instructions. The labeled K562 cells were then seeded into a 96-well round bottom plate at 1×10^5 cells/well. […] Specific target cell lysis by PBMC mediated apoptosis was measured using Annexin V-fluorescein isothiocyanate (FITC) and propidium iodide (PI) according to manufacturer's instructions and samples were run on the FACS Array scan. […] All myeloma cell lines were kept in log phase, and cell density and viability were monitored by trypan blue exclusion using the Vi-CELL XR cell viability analyzer. […] Frozen PBMC donors, were thawed at 37° C. for 2 minutes in RPMI medium with 10% FBS and cell counts and viability were measured on the Vi-CELL® (Beckman Coulter). […] Peripheral blood mononuclear cells were counted and added to the MM cells at a target:effector (T:E) ratio of 1:5. […]

[4] = continuous exposure, OPM2-P10 cells

N#Cc1ccc(N2CCN(Cc3ccc(COc4cccc5c4CN([C@H]4CCC(=O)NC4=O)C5=O)cc3)CC2)c(F)c1 [Compound 2, (S)-4-(4-(4-(((2-(2,6-dioxopiperidin-3-yl)-1-oxoisoindolin-4-yl)oxy)methyl)benzyl)piperazin-1-yl)-3-fluorobenzonitrile]
degradation of Aiolos and Ikaros ([1]; 6 hours exposure (0.01 and 0.1 μM) followed by washout): greater than 70%
duration of sustained depletion of substrates ([1]; continuous exposure, H929-1051 cells): up to 70 hours
duration of sustained degradation of both proteins (Aiolos and Ikaros) [1, 4]: more than 150 hours
duration of sustained depletion of substrates [1, 4]: up to 100 hours
degradation of Aiolos and Ikaros ([1]; single continuous exposure, no washout, H929-1051 and OPM2-P10): greater than 70%
enhancement of killing, IC50 of single MM culture versus immune and tumor cell co-culture [2]: ~6000 fold
IC50 [3]: 5.9 pM
